Values joined by “and” are separate entries in the source; they are usually repeats but may differ in a detail not shown here. Equal entries are not always repeated. “Also recorded” adds a separate entry of the source. Where two headings read alike, the source gives them in different places.
Assays:
HIV = format: cell-based
Procedure: The procedure used For testing agents active against (HIV) is designed to detect agents acting at any stage of the virus reproductive cycle. The assay basically involves the killing of T4 lympnocytes by HIV. Small amounts of HIV are added to cells, and at least two complete cycles of virus reproduction are necessary to obtain the required cell killing. […] The system is automated in several ceatures to accomodate large numbers of candidate agents, and is generally designed to detect anti-HIV activity. […]. Also, while every attempt has been made to reduce variability, precise values for EC50, IC50, and Therapeautic Index are not possible. All tests are compared with a positive (AZT-treated) control done at the same time under identical conditions.
(§1) 1. […] lymphocytes (CEM cell line) are exposed to HIV at a virus to cell ratio approximately 0.05, and plated along with noninfected control cells in 96-well microtiter plates.
(§2) 2. Candidate agent is dissolved in dimethyl sulfoxide (unless otherwose instructed), then diluted 1:200 in cell culture medium. Further dilutions (half-log10) are prepared before adding to an equal volume of medium containing either infected or noninfected cells.
(§3) 3. Cultures are incubated at 37° in a 5% carbon dioxide atmosphere for 6 or 7 days.
(§4) 4. The tetrazolium salt, XTT, is added to all wells, and cultures are incubated to allow formazan color development by viable cells.
(§5) 5. Individual wells are analyzed spectrophotometrically to quantitate formazan production, and in addition are viewed microscopically for detection of viable cells and confirmation of protective activity.
(§6) 6. Drug-treated virus-infected cells are compared with drug-treated noninfected cells and with other appropirate controls (untreated infected and untreated noninfected cells, drug-containing wells without cells, etc.) on the same plate.
7. Data are reviewed in comparison with other tests done at the same time, and a determinatin about activity is made.
Several complexes were tested for use as agents active against (HIV). […]
(§7) The Graphic Results Summary Section: FIGS. 23-33 display a plot of Log 10 of the sample's concentration (as μg/mL or molar) against the measured test values expressed as a percentage of uninfected, untreated control values. The solid line connecting the diamond symbols depicts the percentage of surviving HIV-infected cells treated with your sample (at the indicated onccentration) relative to uninfected, untreated cotrols. This line expressed the in-vitro anti-HIV activity of your sample. The dashed line connecting the square symbols depicts the percentage of surviving uninfected cells treated with your sample relative to the same uninfected, untreated controls. This line expresses the in-vitro growth inhibitory properties of your sample. The viral cytophathic effect in this particular experiment is indicated by a dotted reference line. […] Values of this parameter less than 50% are considered acceptable in the current protocol. Reference lines at 0% and 50% are depicted as alternating dots and dashes.

[1] = test system: CEM cell line (T4 lymphocytes); assay: Growth inhibition of uninfected CEM cells in the anti-HIV screen (XTT); format: cell-based
Procedure: as §1, §2, §3, §4, §5, §6, §7

calf thymus DNA [2] = assay: Absorption titration with calf thymus DNA (half-reciprocal, hypochromism); format: binding; details: in words; for binding to DNA: absorption changes too small for Kb
Excerpt: In plots of [DNA]/(εA -εF) versus [DNA], Kb is given by the ratio of the slope to intercept.

calf thymus DNA [3] = assay: Equilibrium dialysis of racemic complexes against calf thymus DNA (Scatchard, dialysate CD); format: binding; design: Km × 10) equilibrium dialysis (intrinsic binding constant Kb): scale not given here; details: for Site size: fit to McGhee and von Hippel equation; for binding affinity for DNA: comparative; for Km × 10) equilibrium dialysis (intrinsic binding constant Kb): 5 mM Tris, 50 mM NaCl, pH 7.5, standard deviation in parentheses
Procedure: Equilibrium Dialysis: Equlibrium dialysis of the reacemic metal complexes was perforemd against calf-thymus DNA using procedures described previously. (74) The buffer used was 5 mM Tris, 50 mM NaCl at pH 7.5. Samples were agitated on a shaker bath during equilibration which occurred after three to five days, as determined by control samples containing no DNA. After equilibration, volumes of liquid inside and outside the dialysis bags were determined (approximately 1 and 3 mls, respectively) and circular dichroism of the dialysate was meaxured on a Jasco J-40 spectropolarimeter. Final ruthenium concentration inside and outside the bags were measured by visible absorbance. Data anaylsis was performed on a VAX-780 using non-linear least squares analysis.
Equilibrium Dialysis: Equilibrium binding constants for the metal complexes with DNA may be determined classically by equilibrium dialysis. Calf thymus DNA was dialyzed against the series of mixed ligand complexes using a broad range of ruthenium concentrations. […] The results have been plotted according to Scatchard (88), where r is the ratio of bound metal to DNA-phosphate concentration, and cf is the concentration of free metal complex. The data were fit by non-linear least squares analysis to the McGhee and von Hippel equation (8945) governing random non-cooperative binding to a lattice,
where r is the ratio of bound concentration of ruthenium to the concentration of DNA-phosphate, cf is the concentration of ruthenium free in soltuion, Kb the intrinsic binding constant, and the integer /, which measures the degree of anti-cooperativeity, is the size of a binding site in base pairs. The curves shown reflect the best fit after variation of two parameters: the intrinsic binding constant, Kb, and binding stie size, /. For those complexes were cooperatively was observed, the equation (89) incorporating a cooperativity parameter was used.
Equilibrium dialysis experiments additionally offer the opportunity to examine any enantiomeric selectivities associated with binding. After dialysis of the DNA against the racemic mixture, optical activity observed in the dialysate refelects an enrichment in the dialysate in the less favored enantiomer. For most of the complexes, optical activity was found in the dialysate. Values for the extent of enantiomeric selectivity could not be quanitated in the absence of determinations of DE and assignments of absolute configuration. Assuming that the signs of the circular chroism in the ultraviolet ligand bands are the same for the these ligands as that for the parent phenanthroline complex, (90) we have assigned the absolute configuration of these complexes by comparison to spectra for enantiomers of Ru(phen)3^2+ and have compared levels of enantioselectivity qualitatively through measurements of circular dichroic intensity per rutheium bound. Based upon these assumptions, we find enantionmeric selectivities for the polyridyl complexes to reflect an enrichment in the isomer in the dialysate and the preferential binding of the isomer to the right-handed DNA. This observation is consistent with the preferential intercalation of isomers found earlier for Ru(phen)3^2+ in right-handed B-DNA. (63) We may also compare relative enantioselectivities for different ancillary ligands. […] The same comparison may be seen qualitatively between Ru(phen)2 DIP^2+ and Ru(bpy)2 DIP^2+.

pBR322 DNA = assay: Unwinding of supercoiled pBR322 DNA (topoisomerase I assay); details: for EC50: read-out: Unwinding concentration, needed to unwind 11 of 22 supercoils, [DNA] 47 μM for phi complexes, 31.5 μM others, 60 min; for Unwinding Angle: per molecule of bound complex
calf thymus DNA [4] = assay: Spectroscopic properties (absorption, emission, lifetime) on binding to calf thymus DNA; details: 7 μM Ru, 40:1 nucleotide/metal, 20° C.
Procedure: Instrumentation: NMR spectra were recorded on a Varian VXR-300MHz spectormeter. FABS were performed using a VG Analytical 7070EQ Mas Spectrometer (78), and elemental analyses were done by Galbraith Laboratories in Nashville, Tenn. UV-Visible absorbance spectal were recorded on a Varian CARY-219 absorbance spectorphotometer. Extinction coefficients for the compounds were determined versus ruthenium concentrations obtained by atomic absorption spectroscopy with known ruthenium standards. [Ru(bpy)3 ]Cl2 solutions were also employed for these determinations as an internal standard. A varian AA-875 atomic absorption spectrophotometer was used for these determinations.
Emission spectra were measured on a Perkin-Elmer LS-5 fluorescence spectrometer. The samples were excited at their corresponding isosbestic points. All the measurements were made at 20° C. in a thermostatted cuvette holder with 3 nm entrance slit and 10 nm exit slit. Ruthenium solutions employed were 7 μM in concentration and claf thymus DNA was added to a ration of 40:1 nucleotide/metal; ruthenuim-DNA soltuions were allowed to incubate for 15 minutes before enhanced spectra were recorded. The emission enhancement factors were measured by comparing the intensitites at the emission spectral mixima in the absence ad presence of DNA, under similar conditions.
The limunescence lifetime measurements were done on a PRA SPC (single photon countining) spectometer with some minor modifications. The samples were excited with a nitrogen filled tnynratron gated flash lamp and the data were collected using a Tracor Northern 1710 multichannel analyser. The data were then transferred to a PDP-11/03 computer and deconvoluted with PRA software. […] concentrated solution of DNA (5mM DNA-phosphate) in buffer was added to a solution of the metal complex (4 μM) in buffer and allowed to equilibrate. Lifetimes of the samples were measured 0.5 hr after the metal complexes were mixed with DNA. All measurements were made at 20° C. and under air saturated conditions.
Furthermore, for all the complexes, this electronic transition is perturbed on binding to DNA.

[5] = Table 12, dose 1 of 8, printed 9.14 × 10- μg/ml
[6] = Table 12, dose 2 of 8, printed 1.82 × 10+ μg/ml
[7] = Table 12, dose 3 of 8, printed 3.65 × 10+ μg/ml
[8] = Table 12, dose 4 of 8, printed 7.31 × 10+ μg/ml
[9] = Table 12, dose 5 of 8, printed 1.46 × 10+ μg/ml
[10] = Table 12, dose 6 of 8, printed 2.92 × 10+ μg/ml
[11] = Table 12, dose 7 of 8, printed 5.85 × 10+ μg/ml
[12] = Table 12, dose 8 of 8, printed 1.17 × 10+ μg/ml

Compound: [Rh+3].c1ccc(-c2ccnc3c2ccc2c(-c4ccccc4)ccnc23)cc1.c1ccc(-c2ccnc3c2ccc2c(-c4ccccc4)ccnc23)cc1.c1ccc(-c2ccnc3c2ccc2c(-c4ccccc4)ccnc23)cc1 [Rh(DIP)3]
- Infected Culture Response(%) (HIV; [5]): 12.4%
- Infected Culture Response(%) (HIV; [6]): 18.5%
- Infected Culture Response(%) (HIV; [7]): 64.7%
- Infected Culture Response(%) (HIV; [8]): 45.4%
- Infected Culture Response(%) (HIV; [9]): -.3%
- Infected Culture Response(%) (HIV; [10]): -.9%
- Infected Culture Response(%) (HIV; [11]): -1.8%
- Infected Culture Response(%) (HIV; [12]): -1.8%
- Infected Culture Response(%) (HIV; Tables 6-11, dose 3 of 8, 1.17 × 10- [sic] μg/ml): 8.0%
- activity in inhibiting the activity of HIV (HIV; in words): moderately active
- Uninfected Culture Response(%) [1, 5]: 92.9%
- Uninfected Culture Response(%) [1, 6]: 91.8%
- Uninfected Culture Response(%) [1, 7]: 82.4%
- Uninfected Culture Response(%) [1, 8]: 55.2%
- Uninfected Culture Response(%) [1, 9]: -.9%
- Uninfected Culture Response(%) [1, 10]: -1.6%
- Uninfected Culture Response(%) [1, 11]: -.7%
- Uninfected Culture Response(%) [1, 12]: -1.5%
- Uninfected Culture Response(%) ([1]; Tables 2-5, dose 1 of 8, 1.25 × 10- [sic] μg/ml): 110.1% and 100.3% and 133.6% and 105.1%
- Uninfected Culture Response(%) ([1]; Tables 2-5, dose 2 of 8, 1.25 × 10- [sic] μg/ml): 113.1% and 98.9% and 131.0% and 82.1%
- Uninfected Culture Response(%) ([1]; Tables 2-5, dose 3 of 8, 1.25 × 10- [sic] μg/ml): 106.0% and 89.3% and 108.6% and 65.1%
- Uninfected Culture Response(%) ([1]; Tables 2-5, dose 8 of 8, 1.25 × 10+ [sic] μg/ml): -6% and -1.6% and -6.8% and -2.1%
- Uninfected Culture Response(%) ([1]; Tables 6-11, dose 1 of 8): 101.9% and 100.5% and 96.6% and 96.5% and 100.2% and 101.1%
- Uninfected Culture Response(%) ([1]; Tables 6-11, dose 2 of 8): 94.1% and 96.9% and 97.4% and 80.8% and 102.4% and 95.3%
- Uninfected Culture Response(%) ([1]; Tables 6-11, dose 3 of 8): 96.8% and 102.2% and 101.8% and 86.9% and 115.3% and 110.6%
- Uninfected Culture Response(%) ([1]; Tables 6-11, dose 4 of 8): 95.5% and 100.6% and 98.1% and 98.3% and 121.1% and 108.9%
- Uninfected Culture Response(%) ([1]; Tables 6-11, dose 5 of 8): 97.9% and 104.2% and 101.3% and 88.4% and 113.8% and 93.7%

Compound: O=[N+]([O-])c1cc2cccnc2c2ncccc12.O=[N+]([O-])c1cc2cccnc2c2ncccc12.O=[N+]([O-])c1cc2cccnc2c2ncccc12.[Ru+2] [Ru(5-NO2phen)3^2+, [Ru(5-nitrophenanthroline)3)]Cl2]
- binding to DNA (calf thymus DNA [2]): bound very weakly
- Site size (calf thymus DNA [3]): 8-12 base pairs
- binding affinity for DNA (calf thymus DNA [3]; in words): bind only poorly to DNA; also recorded: much lower than would be expected based upon their solvent accessible surfaces

Compound: [Ru+2].c1ccc(-c2ccccn2)nc1.c1ccc(-c2ccccn2)nc1.c1ccc(-c2ccnc3c2ccc2c(-c4ccccc4)ccnc23)cc1 [Ru(bpy)2 (DIP)^2+]
- EC50 (pBR322 DNA): 170 µM
- binding to DNA (calf thymus DNA [2]): bound very weakly
- Emission Enchantment (I/Io) (calf thymus DNA [4]): 1.13 I/Io
- Km × 10) equilibrium dialysis (intrinsic binding constant Kb) (calf thymus DNA [3]): 1.7(.3) × 10
- Site size (calf thymus DNA [3]): 12-18 base pairs

Compound: N=C1C(=N)c2ccccc2-c2ccccc21.[Ru+2].c1ccc(-c2ccccn2)nc1.c1ccc(-c2ccccn2)nc1 [Ru(bpy)2 (phi)^2+]
- Unwinding Angle (pBR322 DNA): 17 degrees
- EC50 (pBR322 DNA): 1.1 µM
- hypochromism / absorption change on DNA addition (calf thymus DNA [2]): greatest change in absorption
- Km × 10) equilibrium dialysis (intrinsic binding constant Kb) (calf thymus DNA [3]): 160.(17) × 10
- Site size (calf thymus DNA [3]): 4 base pairs

Compound: [Ru+2].c1ccc(-c2ccccn2)nc1.c1cnc2c(c1)ccc1cccnc12.c1cnc2c(c1)ccc1cccnc12 [Ru(phen)2 (bpy)^2+]
- Unwinding Angle (pBR322 DNA): 18 degrees
- EC50 (pBR322 DNA): 11 µM
- Emission Enchantment (I/Io) (calf thymus DNA [4]): 1.43 I/Io
- Site size (calf thymus DNA [3]): 5-7 base pairs

Compound: N=C1C(=N)c2ccccc2-c2ccccc21.N=C1C(=N)c2ccccc2-c2ccccc21.[Ru+2].c1ccc(-c2ccccn2)nc1 [Ru(phi)2 (bpy)^2+]
- unwinding of the helix (pBR322 DNA; in words): lower concentration
- EC50 (pBR322 DNA): 0.6 µM
- hypochromism / absorption change on DNA addition (calf thymus DNA [2]): greatest change in absorption
- Site size (calf thymus DNA [3]): cooperative
- aggregation in solution (calf thymus DNA [3]; in words): tend to agfregate in solution
- binding curve type (cooperativity) (calf thymus DNA [3]; in words): cooperatiove binding
- binding affinity for DNA (calf thymus DNA [3]; in words, listed as Ru(phi) 2 bpy^2+): in the range of those for Ru(phen)2phi^2+
- binding affinity for DNA (calf thymus DNA [3]; in words, listed as Ru(phi)2 bpy^2+): decreased affinity for DNA relative to Ru(bpy)2 ph^2+

— patent US5157032A, “Mixed ligand complexes and uses thereof as binding agents and probes to DNA” (The Trustees of Columbia University In The City of New York, priority 1990, dated 1992)
